Values quoted from earlier work, collected in US6660871B2, “Synthesis of 4H-chromene derivatives” (Thomas Jefferson Unversity, priority 2001, dated 2003).

System: tumor cells

CCOC(=O)C1=C(N)Oc2ccc(Br)cc2C1C(C#N)C(=O)OCC (stereo not shown) [HA14-1]
apoptosis of tumor cells: induces apoptosis of tumor cells
